The target of one assay is T1, KOD DNA Polymerase (Thermococcus kodakarensis, UniProt P77933, DEL407-766/DEL852-1388).
T1 construct: purchased TOYOBO CO., LTD
Nature of the assay: PCR with KOD DNA Polymerase (α-type) in the presence of acidic substances. Type of assay: biochemical, Pyrococcus sp. As to conditions: 10 kb fragment, 100 pg λDNA, 30 cycles 98°C 5 s–68°C 3 min. Here is the method: (1) Using sodium alginate, sodium hyaluronate (manufactured by Seikagaku Kogyo), or κ carrageenan (manufactured by Sigma), the effects of these acidic substances on α-type DNA polymerase were examined. A reaction mixture comprising λDNA as a template, primers λ1 and λ8 as a primer pair, and KOD DNA Polymerase (manufactured by TOYOBO CO., LTD.) as DNA polymerase was prepared, and PCR was carried out. The composition of the reaction mixture is as follows. Composition of Reaction Mixture: KOD DNA Polymerase Buffer I (manufactured by TOYOBO CO., LTD.) 0.2 mM each of dATP, dCTP, dGTP and dTTP, 0.625 U of KOD DNA Polymerase, 100 pg of λDNA, and 5 pmol each of primers λ1 and λ8 (a final volume being 25 μl). Further, 1 μg or 2.5 μg of sodium alginate, 0.1 μg or 0.5 μg of sodium hyaluronate, or 0.1 μg or 0.25 μg of κ carrageenan was respectively added to the above reaction mixture.
The reaction in 30 cycles was carried out for each of these reaction mixtures, wherein one cycle of reaction comprises a process consisting of 98° C., 5 seconds—68° C., 3 minutes. Thereafter, 5 μl of the resulting reaction mixture was subjected to electrophoresis on 1% agarose gel containing ethidium bromide in an amount of 0.00005%, whereby an amplified fragment was confirmed.
(2) The effects on α-type DNA polymerase were also examined in the same manner as in item (1) above for sodium alginate, κ carrageenan, sodium heparan sulfate (manufactured by Sigma), sodium dermatan sulfate (manufactured by Sigma), potassium polyvinyl sulfate (manufactured by nacalaitesque) or sodium polystyrenesulfonate (two kinds: average molecular weights of 5,400 and 35,000, all manufactured by nacalaitesque). A reaction mixture comprising λDNA as a template, primers λ1 and λ8 as a primer pair, and KOD DNA Polymerase as DNA polymerase was prepared, and PCR was carried out. The composition of the reaction mixture is as follows. Composition of Reaction Mixture: KOD DNA Polymerase Buffer II (manufactured by TOYOBO CO., LTD.) 0.2 mM each of dATP, dCTP, dGTP and dTTP, 1.25 U of KOD DNA Polymerase, 100 pg of λDNA, and 10 pmol each of primers λ1 and λ8 (a final volume being 50 μl). Further, 2.5 μg or 5 μg of sodium alginate, 0.25 μg or 0.5 μg of κ carrageenan, or 125 ng, 250 ng or 375 ng of sodium dermatan sulfate, 500 ng of sodium heparan sulfate, 10 ng of potassium polyvinyl sulfate, 2.5 ng or 5 ng of sodium polystyrenesulfonate (average molecular weight: 5,400), or 5 ng of sodium polystyrenesulfonate (average molecular weight: 35,000) was respectively added to the above reaction mixture.

In the next assay the target is T2, Pfu DNA Polymerase II (Pyrococcus furiosus, UniProt P81409+P81412).
T2 construct: made in house; host or cells: Escherichia coli JM109/pFU1001 (FERM BP-5579)
T2 sequence (P81409 1-1263): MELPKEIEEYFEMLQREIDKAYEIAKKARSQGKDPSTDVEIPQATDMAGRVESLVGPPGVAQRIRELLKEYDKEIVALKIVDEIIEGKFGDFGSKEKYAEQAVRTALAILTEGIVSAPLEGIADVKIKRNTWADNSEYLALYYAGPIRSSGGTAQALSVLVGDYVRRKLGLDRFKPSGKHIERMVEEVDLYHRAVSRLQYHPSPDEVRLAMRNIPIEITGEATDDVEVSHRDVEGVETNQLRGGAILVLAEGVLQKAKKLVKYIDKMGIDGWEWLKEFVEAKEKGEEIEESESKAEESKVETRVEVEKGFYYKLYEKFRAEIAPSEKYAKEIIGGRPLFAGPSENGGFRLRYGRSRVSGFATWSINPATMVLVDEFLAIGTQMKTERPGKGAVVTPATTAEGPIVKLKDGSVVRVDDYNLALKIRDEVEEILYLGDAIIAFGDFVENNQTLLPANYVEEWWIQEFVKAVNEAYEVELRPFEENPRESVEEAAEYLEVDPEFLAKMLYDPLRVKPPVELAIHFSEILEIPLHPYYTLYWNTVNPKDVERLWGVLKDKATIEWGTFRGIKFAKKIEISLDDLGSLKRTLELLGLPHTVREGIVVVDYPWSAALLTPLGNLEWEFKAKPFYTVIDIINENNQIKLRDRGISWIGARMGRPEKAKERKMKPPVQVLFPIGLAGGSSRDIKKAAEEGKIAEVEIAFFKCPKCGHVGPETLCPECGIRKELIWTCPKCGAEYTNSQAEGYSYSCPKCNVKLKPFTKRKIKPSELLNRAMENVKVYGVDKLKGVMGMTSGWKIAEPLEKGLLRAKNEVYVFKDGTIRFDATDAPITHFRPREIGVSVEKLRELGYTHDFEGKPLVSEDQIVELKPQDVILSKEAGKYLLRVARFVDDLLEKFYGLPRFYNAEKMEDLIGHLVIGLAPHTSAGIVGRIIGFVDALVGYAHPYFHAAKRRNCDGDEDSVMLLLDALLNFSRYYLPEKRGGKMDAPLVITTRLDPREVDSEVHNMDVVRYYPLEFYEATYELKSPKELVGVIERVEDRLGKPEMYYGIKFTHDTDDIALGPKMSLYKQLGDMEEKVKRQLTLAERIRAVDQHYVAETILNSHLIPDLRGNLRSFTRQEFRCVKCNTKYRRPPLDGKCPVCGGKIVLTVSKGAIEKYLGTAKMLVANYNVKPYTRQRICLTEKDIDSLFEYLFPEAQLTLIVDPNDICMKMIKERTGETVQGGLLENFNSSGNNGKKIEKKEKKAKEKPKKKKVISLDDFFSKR
T2 sequence (P81412 1-613): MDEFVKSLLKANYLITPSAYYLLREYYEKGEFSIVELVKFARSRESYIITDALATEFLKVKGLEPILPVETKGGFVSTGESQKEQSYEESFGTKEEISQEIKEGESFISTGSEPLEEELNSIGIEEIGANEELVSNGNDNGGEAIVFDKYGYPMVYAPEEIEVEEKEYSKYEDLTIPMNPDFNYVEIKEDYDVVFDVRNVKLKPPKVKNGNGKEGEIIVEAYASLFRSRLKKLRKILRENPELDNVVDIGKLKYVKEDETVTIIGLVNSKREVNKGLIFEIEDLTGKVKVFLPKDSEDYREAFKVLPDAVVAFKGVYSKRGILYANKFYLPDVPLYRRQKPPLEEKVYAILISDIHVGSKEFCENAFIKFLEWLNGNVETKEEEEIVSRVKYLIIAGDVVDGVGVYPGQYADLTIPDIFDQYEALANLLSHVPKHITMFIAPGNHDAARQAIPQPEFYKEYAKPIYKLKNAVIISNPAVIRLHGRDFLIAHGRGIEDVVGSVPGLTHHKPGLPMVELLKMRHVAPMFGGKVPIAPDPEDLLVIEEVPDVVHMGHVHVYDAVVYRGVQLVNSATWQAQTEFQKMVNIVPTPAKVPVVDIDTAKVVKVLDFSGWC
Kind of assay: PCR with Pfu DNA Polymerase II in the presence of acidic substances (λDNA template). Type of assay: biochemical. As to conditions: 0.5 kb fragment; 100 pg λDNA, primers λ1/λ2, 25 cycles 98°C 5 s–66°C 15 s; amount added 10 ng. The method, then: A reaction mixture comprising λDNA as a template, primers λ1 and λ3 as a primer pair, and Pfu DNA Polymerase II as DNA polymerase was prepared, and PCR was carried out. The composition of the reaction mixture is as follows.
10 mM Tris-hydrochloric acid (pH 9.2), 75 mM potassium chloride, 6 mM magnesium chloride, 0.4 mM each of dATP, dCTP, dGTP and dTTP, 0.01% BSA, 1.25 U of Pfu DNA Polymerase II, 500 pg of λDNA, and 5 pmol each of primers λ1 and λ3 (a final volume being 25 μl). […]
Using the sulfated-fucose-containing Polysaccharide-F obtained in Example 6 described above, dextran sulfate powder (manufactured by Onco), or sodium alginate (100 to 150 centipoises, manufactured by Wako Pure Chemicals), the effects of these acidic substances on the activity of Pfu DNA Polymerase II were examined. A reaction mixture comprising λDNA as a template, primers λ1 and λ2 as a primer pair, and Pfu DNA Polymerase II as DNA polymerase was prepared, and PCR was carried out. The composition of the reaction mixture is as follows.
10 mM Tris-hydrochloric acid, pH 9.2, 75 mM potassium chloride, 6 mM magnesium chloride, 0.4 mM each of dATP, dCTP, dGTP and dTTP, 0.01% BSA, 1.25 U of Pfu DNA Polymerase II, 100 pg of λDNA, and 5 pmol each of primers λ1 and λ2 (a final volume being 25 μl). Further, 10 ng of the sulfated-fucose-containing polysaccharide-F, 10 ng of dextran sulfate powder, or 1 μg of sodium alginate was respectively added to the above reaction mixture.
The reaction in 25 cycles was carried out for each of these reaction mixtures, wherein one cycle of reaction comprises a process consisting of 98° C., 5 seconds—66° C., 15 seconds. Thereafter, 5 μl of the resulting reaction mixture was subjected to electrophoresis on 1% agarose gel containing ethidium bromide in an amount of 0.00005%, whereby an amplified fragment was confirmed.
Further, studies were conducted on the effects of the sulfated-fucose-containing polysaccharide-F obtained in Example 6 described above, the sulfated-fucose-containing polysaccharide-U obtained in Example 7 described above, or sodium polyglutamate (manufactured by Sigma) as an acidic substance. A reaction mixture for PCR was prepared in the same manner as described above except for changing the amount of template λDNA to 500 pg and the primer pairs to primers λ1 and λ3. Five nanograms of the sulfated-fucose-containing polysaccharide-F, 5 ng, 10 ng, 20 ng or 30 ng each of the sulfated-fucose-containing polysaccharide-U, or 250 ng, 500 ng, 750 ng or 1000 ng each of sodium polyglutamate was respectively added to the above reaction mixture.
The reaction was carried out in 30 cycles, wherein one cycle of reaction comprises a process consisting of 98° C., 5 seconds—66° C., 15 seconds. After the termination of the reaction, 5 μl of the resulting reaction mixture was subjected to electrophoresis on 1% agarose gel containing ethidium bromide in an amount of 0.00005%, whereby an amplified fragment was confirmed.
Using the sulfated-fucose-containing polysaccharide-F obtained in Example 6 described above, the effects on the activity of Pfu DNA Polymerase II were examined. A reaction mixture comprising λDNA as a template, primers λ1 and λ2 as a primer pair, and Pfu DNA Polymerase II as DNA polymerase was prepared, and PCR was carried out. The composition of the reaction mixture is as follows.
10 mM Tris-hydrochloric acid, pH 9.2, 75 mM potassium chloride, 6 mM magnesium chloride, 0.4 mM each of dATP, dCTP, dGTP and dTTP, 0.01% BSA, 1.25 U of Pfu DNA Polymerase II, 500 pg of λDNA, and 5 pmol each of primers λ1 and λ2 (a final volume being 25 μl). Further, 10 ng of the sulfated-fucose-containing polysaccharide-F was respectively added to the above reaction mixture.
The reaction in 30 cycles was carried out for each of these reaction mixtures, wherein one cycle of reaction comprises a process consisting of 98° C., 5 seconds—66° C., 15 seconds. […]

Setting [1] is: Buffer I, 0.625 U KOD, primers λ1/λ8, 25 μl, amount added 0.1 μg.

This is an account of results in US8367328B2, “Method for synthesizing DNA” (Takara Bio Inc., priority 1998, dated 2013).

T1 sequence (P77933 other isoform, or with tags, fused parts or gaps DEL407-766/DEL852-1388): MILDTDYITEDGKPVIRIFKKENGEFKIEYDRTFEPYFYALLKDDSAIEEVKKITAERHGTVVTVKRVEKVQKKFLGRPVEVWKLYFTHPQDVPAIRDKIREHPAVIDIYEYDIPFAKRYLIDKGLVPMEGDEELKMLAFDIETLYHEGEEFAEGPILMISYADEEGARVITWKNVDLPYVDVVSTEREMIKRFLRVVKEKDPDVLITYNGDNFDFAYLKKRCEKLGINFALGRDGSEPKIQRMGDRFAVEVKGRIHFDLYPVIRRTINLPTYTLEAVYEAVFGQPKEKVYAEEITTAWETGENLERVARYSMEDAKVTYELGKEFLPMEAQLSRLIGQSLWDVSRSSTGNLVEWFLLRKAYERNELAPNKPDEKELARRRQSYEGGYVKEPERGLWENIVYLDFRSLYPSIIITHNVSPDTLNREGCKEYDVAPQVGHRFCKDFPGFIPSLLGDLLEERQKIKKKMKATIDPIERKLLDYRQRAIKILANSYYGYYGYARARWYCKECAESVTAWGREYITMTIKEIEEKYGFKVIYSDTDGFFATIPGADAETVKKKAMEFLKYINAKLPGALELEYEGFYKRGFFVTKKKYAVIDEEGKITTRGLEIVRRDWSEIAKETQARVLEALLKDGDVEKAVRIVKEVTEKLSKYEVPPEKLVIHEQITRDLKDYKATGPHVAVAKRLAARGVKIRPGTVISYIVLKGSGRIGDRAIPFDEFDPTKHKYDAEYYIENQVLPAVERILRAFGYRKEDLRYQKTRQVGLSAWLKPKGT

As to sodium heparan sulfate, the “Amplification Results” value on KOD DNA Polymerase (Buffer II, 1.25 U KOD, primers λ1/λ8, 50 μl, amount added 500 ng) is “+ (Amplification being observed)”.
For “dextran sulfate [Dextran Sulfate Powder]”, the “Amplification Results” value at Pfu DNA Polymerase II was “+ (Amplification being observed)”.
In the case of sodium dermatan sulfate, the “Amplification Results” value is “+ (Amplification being observed)” on KOD DNA Polymerase (Buffer II, 1.25 U KOD, primers λ1/λ8, 50 μl, amount added 125 ng); “+ (Amplification being observed)” on KOD DNA Polymerase (Buffer II, 1.25 U KOD, primers λ1/λ8, 50 μl, amount added 250 ng); “+ (Amplification being observed)” on KOD DNA Polymerase (Buffer II, 1.25 U KOD, primers λ1/λ8, 50 μl, amount added 375 ng).
Consider κ carrageenan, for which the “Amplification Results” value at KOD DNA Polymerase (setting [1]) is recorded as “+ (Amplification being observed)”; on KOD DNA Polymerase (Buffer I, 0.625 U KOD, primers λ1/λ8, 25 μl, amount added 0.25 μg), “+ (Amplification being observed)”; on KOD DNA Polymerase (Buffer II, 1.25 U KOD, primers λ1/λ8, 50 μl, amount added 0.25 μg), “++ (Intensive amplification being observed)”; at KOD DNA Polymerase (Buffer II, 1.25 U KOD, primers λ1/λ8, 50 μl, amount added 0.5 μg) it was “++ (Intensive amplification being observed)”.
In the case of sodium hyaluronate, the “Amplification Results” value at KOD DNA Polymerase (setting [1]) is reported as “+ (Amplification being observed)”; on KOD DNA Polymerase (Buffer I, 0.625 U KOD, primers λ1/λ8, 25 μl, amount added 0.5 μg), “+ (Amplification being observed)”.
